Results as given in patent publication US12448369B2 (Edgewise Therapeutics, Inc., priority 2023, dated 2025).

Columns and labels:
[1] = system: Rabbit Psoas myofibrils (skeletal myosin ATPase); assay: Myofibril ATPase assay, rabbit psoas (skeletal) myofibrils; type: biochemical; conditions: rabbit psoas myofibrils
Outline: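 Values derive from concentration–response fits of NADH consumption rates at 340 nm, normalized to vehicle-only wells, as Y75 or Y125. Myofibril ATP turnover was linked to NADH via PK/LDH in Ca/EGTA-buffered PIPES, pH 7.0, and read over 75 min.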

[2] = system: Porcine atria myofibrils (atrial myosin ATPase); assay: Myofibril ATPase assay, porcine atria myofibrils; type: biochemical; conditions: porcine atria myofibrils
Outline: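 Atrial myofibril ATPase measured by NADH-coupled absorbance at 340 nm; vehicle-normalized slopes fitted to give Y75 or Y125 values.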

[3] = target: T1, Porcine ventricle myofibrils (ventricular myosin ATPase) (Sus scrofa, UniProt P79293); assay: Myofibril ATPase assay, porcine ventricle myofibrils; type: biochemical, porcine (Yucatan minipigs); conditions: porcine ventricle myofibrils
T1 construct: Myofibrils from porcine cardiac muscle was isolated from the left ventricle of Yucatan minipigs; tissue Exemplar Genetics; host or cells: left ventricle of Yucatan minipigs, myofibrils prepared in house
T1 sequence (P79293 whole entry): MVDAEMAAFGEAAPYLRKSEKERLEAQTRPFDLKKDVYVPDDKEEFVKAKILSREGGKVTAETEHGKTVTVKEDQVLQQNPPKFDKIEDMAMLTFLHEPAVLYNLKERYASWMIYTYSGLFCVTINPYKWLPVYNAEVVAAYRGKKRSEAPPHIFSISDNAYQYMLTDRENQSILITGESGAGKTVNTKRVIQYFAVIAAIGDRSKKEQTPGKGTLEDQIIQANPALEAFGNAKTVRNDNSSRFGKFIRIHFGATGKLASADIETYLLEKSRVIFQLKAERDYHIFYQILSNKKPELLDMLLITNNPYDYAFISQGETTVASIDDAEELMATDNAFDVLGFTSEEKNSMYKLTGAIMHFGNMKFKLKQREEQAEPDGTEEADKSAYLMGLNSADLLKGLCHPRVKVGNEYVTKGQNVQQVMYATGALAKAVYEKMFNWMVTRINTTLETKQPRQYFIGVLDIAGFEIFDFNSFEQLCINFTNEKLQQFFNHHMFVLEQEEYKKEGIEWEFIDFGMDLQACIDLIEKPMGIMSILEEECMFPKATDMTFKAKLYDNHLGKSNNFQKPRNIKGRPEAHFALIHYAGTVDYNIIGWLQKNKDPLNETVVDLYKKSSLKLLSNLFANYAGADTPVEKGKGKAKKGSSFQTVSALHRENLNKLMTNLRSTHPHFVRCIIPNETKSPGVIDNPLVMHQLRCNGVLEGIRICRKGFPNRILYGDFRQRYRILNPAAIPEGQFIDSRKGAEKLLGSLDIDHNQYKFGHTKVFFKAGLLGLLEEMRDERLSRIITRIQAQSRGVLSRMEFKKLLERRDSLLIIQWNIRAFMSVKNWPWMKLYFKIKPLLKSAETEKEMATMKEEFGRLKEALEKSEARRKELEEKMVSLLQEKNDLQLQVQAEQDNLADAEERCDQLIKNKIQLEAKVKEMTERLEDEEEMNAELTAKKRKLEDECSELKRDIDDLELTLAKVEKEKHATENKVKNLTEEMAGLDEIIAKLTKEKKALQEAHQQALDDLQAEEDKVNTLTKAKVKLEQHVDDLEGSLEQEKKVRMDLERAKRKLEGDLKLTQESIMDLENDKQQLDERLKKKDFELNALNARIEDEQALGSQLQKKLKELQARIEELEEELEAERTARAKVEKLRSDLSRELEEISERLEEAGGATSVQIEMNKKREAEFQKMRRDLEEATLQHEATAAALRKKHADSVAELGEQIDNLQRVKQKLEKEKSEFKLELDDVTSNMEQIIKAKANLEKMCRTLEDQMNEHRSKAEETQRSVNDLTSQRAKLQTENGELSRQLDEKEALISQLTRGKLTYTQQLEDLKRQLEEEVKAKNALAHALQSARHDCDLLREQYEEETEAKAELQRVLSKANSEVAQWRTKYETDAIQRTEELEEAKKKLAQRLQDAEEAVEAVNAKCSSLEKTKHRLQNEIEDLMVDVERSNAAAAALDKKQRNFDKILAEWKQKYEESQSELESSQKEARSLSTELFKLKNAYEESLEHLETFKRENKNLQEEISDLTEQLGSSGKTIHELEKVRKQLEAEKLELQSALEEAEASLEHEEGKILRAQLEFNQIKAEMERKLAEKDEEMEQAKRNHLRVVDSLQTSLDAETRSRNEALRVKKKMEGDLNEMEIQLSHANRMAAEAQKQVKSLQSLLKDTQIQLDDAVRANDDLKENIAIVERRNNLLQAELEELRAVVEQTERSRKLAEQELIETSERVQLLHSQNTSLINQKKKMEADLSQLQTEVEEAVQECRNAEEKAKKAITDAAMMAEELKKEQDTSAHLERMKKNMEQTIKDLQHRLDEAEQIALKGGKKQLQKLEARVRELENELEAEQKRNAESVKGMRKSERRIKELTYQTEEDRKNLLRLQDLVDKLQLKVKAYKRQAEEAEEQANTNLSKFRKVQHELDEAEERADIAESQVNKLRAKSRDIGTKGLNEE
Outline: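 Myofibrils isolated from Yucatan minipig left ventricle; coupled PK/LDH NADH assay, pCa buffer pH 7.0, kinetic A340 reads over 75 min. Vehicle-normalized slopes fit 4PL; Y75/Y125 derived.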

[4] = Y75 value (75% activity relative to no compound)

SMILES	Skeletal EC25 ([1]; Y75 value) [µM]	Atrial EC25 [2, 4] [µM]	Ventricular EC25 ([3]; Y75 value) [µM]	Skeletal EC25 ([1]; Y75 value (no ‡ mark)) [µM]	Atrial EC25 ([2]; Y75 value (no ‡ mark)) [µM]	Ventricular EC25 ([3]; Y75 value (no ‡ mark)) [µM]
Cc1nc([C@@H](C)NC(=O)Cc2c(C)c3c(C)nccc3[nH]c2=O)ncc1C#N [compound 478]	65.26	5.84	33.12	–	–	–
CC(C(=O)N[C@@H](C)c1ccc(F)cc1F)c1c(C(F)(F)F)c2cc(F)ccc2[nH]c1=O (stereo partly drawn) [compound 113]	–	–	–	0.04	0.10	1.61
Cc1nc(C#N)cnc1[C@@H](C)NC(=O)C(F)(F)c1c(C)c2c(C)nccc2[nH]c1=O (single isomer, unassigned) [compound 3503]	0.89	3.50	5.70	–	–	–
C[C@H](NC(=O)Cc1cc2cc(C#N)ccc2[nH]c1=O)c1ccc(F)cc1F [compound 121]	–	–	–	3.75	100.00	100.00
C[C@@H](NC(=O)Cc1c(Cl)c2cnccc2[nH]c1=O)c1ccc(C#N)cn1 [compound 453]	9.12	8.79	100.00	–	–	–
Cc1nccc2[nH]c(=O)c(CC(=O)N[C@@H](C)c3cccnc3)c(C)c12 (single isomer, unassigned) [compound 323]	100.00	100.00	100.00	–	–	–
Cc1c(CC(=O)N[C@H](C)c2ncc(F)cc2F)c(=O)[nH]c2ccc(C#N)nc12 (single isomer, unassigned) [compound 249]	100.00	100.00	100.00	–	–	–
Cc1nccc2[nH]c(=O)c(CC(=O)N[C@@H](C)c3cnc(C#N)cn3)c(C)c12 [compound 487]	3.42	100.00	3.42	–	–	–
Cc1c(CC(=O)N[C@@H](C)c2ccc(F)cc2F)c(=O)[nH]c2ccc(O)nc12 [compound 299]	17.50	10.21	100.00	–	–	–
Cc1nc(C#N)cnc1[C@@H](C)NC(=O)Cc1cc2cc(F)c(F)cc2[nH]c1=O (single isomer, unassigned) [compound 5]	–	–	–	3.60	1.45	4.13
Cc1nccc2[nH]c(=O)c(CC(=O)N[C@H](CO)Cc3ccccc3)c(C)c12 [compound 495]	100.00	100.00	100.00	–	–	–
COc1nccc2[nH]c(=O)c([C@@H](C)C(=O)N[C@@H](C)c3ccc(F)cc3F)c(C(F)(F)F)c12 (single isomer, unassigned) [compound 425]	1.31	94.54	100.00	–	–	–
Cc1c(CC(=O)N[C@@H](C)c2ccc(C#N)cn2)c(=O)[nH]c2ccc(F)c(C#N)c12 [compound 50]	–	–	–	0.02	0.05	0.23
Cc1c(CC(=O)N[C@@H](C)c2ncc(C#N)cc2F)c(=O)[nH]c2cc(F)ccc12 [compound 1079]	–	–	–	0.14	0.44	3.04
C[C@H](NC(=O)Cc1cc2c(F)c(F)ccc2[nH]c1=O)c1ccc(C#N)cn1 [compound 18]	–	–	–	0.08	0.09	0.26
Cc1cc(F)cnc1[C@H](C)NC(=O)C1(c2cc3c(F)c(F)ccc3[nH]c2=O)CC1 (single isomer, unassigned) [compound 4806]	–	–	–	2.39	0.71	33.85

SMILES	Skeletal EC25 ([1]; Y75 value) [µM]	Atrial EC25 [2, 4] [µM]	Ventricular EC25 ([3]; Y75 value) [µM]	Skeletal EC25 ([1]; Y75 value (no ‡ mark)) [µM]	Atrial EC25 ([2]; Y75 value (no ‡ mark)) [µM]	Ventricular EC25 ([3]; Y75 value (no ‡ mark)) [µM]
Cc1nccc2[nH]c(=O)c(CC(=O)NC(CO)c3ncccc3F)c(C)c12 (stereo not drawn) [compound 237]	100.00	100.00	100.00	–	–	–
Cc1c(CC(=O)N[C@@H](C)c2ccc(C#N)nn2)c(=O)[nH]c2ccc(F)c(C3CC3)c12 (single isomer, unassigned) [compound 2058]	–	–	–	3.15	100.00	68.08
Cc1c(CC(=O)N[C@@H](C)c2ccc(F)cc2F)c(=O)[nH]c2ccnc(I)c12 [compound 353]	0.06	0.14	0.31	–	–	–
Cc1nc([C@@H](C)NC(=O)Cc2c(C)c3c(C)c(F)ccc3[nH]c2=O)ncc1C#N (single isomer, unassigned) [compound 4837]	–	–	–	0.21	1.90	3.67
Cc1c(C(F)(F)C(=O)N[C@@H](C)c2ncc(C#N)cc2F)c(=O)[nH]c2cccc(F)c12 (single isomer, unassigned) [compound 2533]	–	–	–	0.06	0.13	0.13
Cc1c(CC(=O)N[C@@H](C)c2ncc(C3COC3)cn2)c(=O)[nH]c2ccc(F)c(F)c12 (single isomer, unassigned) [compound 2044]	–	–	–	29.36	9.19	5.84
C[C@H](NC(=O)[C@H](C)c1cc2c(F)c(F)ccc2[nH]c1=O)c1ncc(C#N)cc1F (relative stereo) [compound 2604, (2R*)-N-[(1S)-1-(5-cyano-3-fluoropyridin-2-yl)ethyl]-2-(5,6-difluoro-2-oxo-1H-quinolin-3-yl)propanamide]	–	–	–	0.54	0.12	0.75
Cc1c(CC(=O)N[C@@H](CO)c2ccc(C#N)cc2F)c(=O)[nH]c2ccc(C#N)nc12 [compound 221]	2.27	1.12	45.66	–	–	–
Cc1nccc2[nH]c(=O)c(CC(=O)N[C@@H](CO)c3cccnc3)c(C)c12 (single isomer, unassigned) [compound 312]	100.00	100.00	100.00	–	–	–
Cc1nccc2[nH]c(=O)c(CC(=O)N[C@@H](C)c3ccc(O)cc3)c(C)c12 (single isomer, unassigned) [compound 329]	100.00	100.00	100.00	–	–	–
CCN(CC)c1nccc2[nH]c(=O)c(CC(=O)N[C@@H](C)c3ccc(F)cc3F)c(C)c12 [compound 343]	1.55	2.39	9.62	–	–	–
Cc1c(C(F)(F)C(=O)N[C@@H](C)c2ccc(C#N)nn2)c(=O)[nH]c2ccc(F)cc12 (single isomer, unassigned) [compound 2556]	–	–	–	5.17	6.56	16.01
N#Cc1cnc2c(c1)CC[C@@H]2NC(=O)C1(c2cc3c(F)c(F)ccc3[nH]c2=O)CC1 (single isomer, unassigned) [compound 4824]	–	–	–	8.80	100.00	100.00
Cc1c(F)ccc2[nH]c(=O)c(CC(=O)N[C@H](C)c3ncc(C#N)cc3F)c(C#N)c12 [compound 1149]	–	–	–	0.47	1.90	0.15
C[C@H](NC(=O)Cc1cc2nc(C(F)(F)F)ccc2[nH]c1=O)c1ccc(F)cc1F [compound 397]	1.87	100.00	32.40	–	–	–
Cc1ccc2[nH]c(=O)c(CC(=O)N[C@H](C)c3ncc(C#N)cn3)cc2c1F (single isomer, unassigned) [compound 2013]	–	–	–	13.05	16.08	100.00
